Test results: patent US20250213647A1, “CHEMOKINE RECEPTORS AND ALPHA1 ADRENERGIC RECEPTORS/VASOPRESSIN RECEPTORS 1A HETEROMERS AS DRUG TARGETS FOR DISEASE” (UNIVERSITY OF SOUTH FLORIDA, priority 2022, published 2025)

Columns and labels:
[1] = target: T1, CCR2 (Homo sapiens, UniProt P41597); experiment: Gαi activation assay (TRUPATH BRET), HEK293T cells transfected with CCR2 plus pcDNA3 (CCR2 alone); format: cell-based; settings: cells transfected with CCR2 alone; 10 μM PE or PT; FIG. 4B, 4E
Method: HEK293T cells were plated in a 6-well plate and transfected with 0.2 μg each of Gαi1-Rluc8, Gβ3 and Gγ9-GFP2 (Trupath) together with 0.2 μg of mouse or human CCR2 with either pcDNA3.1 or α1b-AR. One day after transfection, cells were trypsinized and replated to 96-well poly-L lysine precoated plates. After overnight incubation, cells were replaced with 0.1% glucose/PBS. Prolume Purple (NanoLight Tech.) or coelenterazine 400a in a final concentration of 5 μM were added in experiments with human or mouse CCR2, respectively, and incubated at room temperature for 3 min. Ligands at various concentrations were added to cells and incubated at room temperature for 5 min before luminescence was measured at 410 nm and 515 nm. […] The BRET changes were calculated by subtracting the BRET signal of untreated cells.

[2] = target: T1, CCR2; experiment: BRET assay for β-arrestin recruitment, HEK293T with CCR2-Rluc and β-arrestin-YFP without α1b-AR; format: cell-based; settings: 10 μM PE, PT or 100 nM INCB3284, FIG. 5C
Method: (§1) β-arrestin recruitment was measured by BRET, as described (Armando, 2014; Berchiche, 2011). In brief, HEK293T cells were plated in a 6-well plate and transfected with 0.1 μg of CCR2-RluII and 1.9 μg β-arrestin-YFP with 0.1 μg pcDNA3.1 or α1b-AR. One day after transfection, cells were re-plated into 96-well poly-L lysine precoated plates. After overnight incubation, cells were replaced with 0.1% glucose/PBS. Coelenterazine H in a final concentration of 5 μM was added to cells and incubated at room temperature for 3 min. […] The BRET changes were calculated by subtracting the BRET signal of untreated cells.

[3] = test system: leukocyte infiltration into dorsal air pouches; experiment: Murine air pouch model, leukocyte infiltration; format: in vivo, C57BL/6 mice; settings: co-injected into the air pouch; phenylephrine 10-100 mg/kg, phentolamine 5-50 mg/kg; 24 h; FIG. 9B-D
Method: All procedures were performed according to the National Institutes of Health Guidelines for Use of Laboratory Animals and were approved by the Institutional Animal Care and Use Committee of the University of South Florida (IS00010570). Male and female C57BL/6 mice (20-25 g) were obtained from Envigo (Indianapolis, IN). Six days prior to the start of the experiments, mice were anesthetized with 1.7% sevoflurane, the dorsal cervical/thoracic region was shaved, disinfected with 70% ethanol and 3 mL of sterile air were injected subcutaneously (s.c.) to create an air pouch. […] 5 ml ice cold lavage fluid was injected into each air pouch using a syringe with a 23-G, 1-inch needle, the air pouch was gently massaged for 60 seconds, the lavage fluid was harvested using the same syringe and needle and the recovered volume was recorded. […] Erythrocytes in the cell pellets were lysed with Invitrogen 1× RBC lysis buffer and the harvested air pouch cells analyzed by flow cytometry.
Harvested air pouch cells were incubated with APC-conjugated anti-mouse CD45 or APC-conjugated immunoglobulin G 2B (IgG2B; isotype control) for 145 min in the dark at room temperature. […] Cells were then washed again, resuspended in PBS, and the cell-associated light scatter and fluorescence were determined with a LSRII instrument (Becton Dickinson). […]

[4] = test system: CCR1; experiment: Chemotaxis assay, THP-1 cells toward CCL23 (CCR1-mediated); format: cell-based, human; settings: CCL23 10 nM, mean±SE, read-out: IC50 for inhibition of CCR1-mediated chemotaxis
Method: (§2) Cell migration was measured employing the Neuroprobe (Gaithersburg, MD, USA) ChemoTx® Disposable Chemotaxis System. A 96-well Boyden-chamber (30 μL/well, 8 μm pores, 1×10^5 pores/cm^2 pore density) was selected for all chemotaxis experiments. Bottom wells of the Boyden-chamber were loaded with 30 μL of test substances at various concentrations. Top wells of the membrane were loaded with 25 μL of THP-1 cells, THP-1_ADRA1B^KO, wild type THP-1 cells after clonal expansion (=control for THP-1_ADRA1B^KO) or freshly isolated monocytes (200 cells/μL). THP-1 cells were suspended in depleted RPMI1640 (0.5% HyClone™ fetal bovine serum, Sigma); Freshly isolated monocytes were suspended in RPMI1640 (0.5% human platelet poor plasma, Sigma). After 3 hours, transmigrated cells were counted utilizing the Cytation 1 plate reader (BioTek) by direct imaging in high contrast bright field (4×) and post-imaging particle analyses with Gen5 (v3.05) Imaging & Microscopy Software (BioTek). The chemotactic index (CI) was calculated as the ratio of cells that transmigrated in the presence versus the absence of the test solutions.

[5] = test system: CCR8; experiment: Chemotaxis assay, THP-1 cells toward CCL1 (CCR8-mediated); format: cell-based, human
Method: as §2

[6] = test system: CXCR4; settings: previous observations (Gao, 2018); cited from earlier work
[7] = target: T1, CCR2; experiment: Chemotaxis assay, THP-1 cells toward CCL2 (CCR2-mediated); format: cell-based; parameters: host or cells: THP-1; settings: CCL2 10 nM, mean±SE, read-out: IC50 for inhibition of CCR2-mediated chemotaxis
Method: as §2

[8] = target: T1, CCR2; parameters: host or cells: THP-1; settings: previous finding (Enten, 2022); cited from earlier work
[9] = target: T2, CCR2:α1b-AR heteromers (Homo sapiens, UniProt P35368+P41597); experiment: BRET assay for β-arrestin recruitment, HEK293T co-expressing CCR2-Rluc, β-arrestin-YFP and α1b-AR; format: cell-based; parameters: expressed in transfected cells; settings: CCL2 plus 10 μM ligand; FIG. 5D
T2 sequence (P41597 whole entry): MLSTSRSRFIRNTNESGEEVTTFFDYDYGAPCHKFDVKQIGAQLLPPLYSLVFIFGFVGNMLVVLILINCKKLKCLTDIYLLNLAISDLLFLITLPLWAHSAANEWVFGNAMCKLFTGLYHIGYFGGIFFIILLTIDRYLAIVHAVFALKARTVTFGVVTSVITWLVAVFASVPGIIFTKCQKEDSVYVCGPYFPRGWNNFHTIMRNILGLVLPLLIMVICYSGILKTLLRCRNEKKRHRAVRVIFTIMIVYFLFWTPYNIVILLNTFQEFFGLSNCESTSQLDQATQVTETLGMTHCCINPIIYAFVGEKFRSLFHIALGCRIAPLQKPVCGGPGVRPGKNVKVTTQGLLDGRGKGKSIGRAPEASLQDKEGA
T2 sequence (P35368 whole entry): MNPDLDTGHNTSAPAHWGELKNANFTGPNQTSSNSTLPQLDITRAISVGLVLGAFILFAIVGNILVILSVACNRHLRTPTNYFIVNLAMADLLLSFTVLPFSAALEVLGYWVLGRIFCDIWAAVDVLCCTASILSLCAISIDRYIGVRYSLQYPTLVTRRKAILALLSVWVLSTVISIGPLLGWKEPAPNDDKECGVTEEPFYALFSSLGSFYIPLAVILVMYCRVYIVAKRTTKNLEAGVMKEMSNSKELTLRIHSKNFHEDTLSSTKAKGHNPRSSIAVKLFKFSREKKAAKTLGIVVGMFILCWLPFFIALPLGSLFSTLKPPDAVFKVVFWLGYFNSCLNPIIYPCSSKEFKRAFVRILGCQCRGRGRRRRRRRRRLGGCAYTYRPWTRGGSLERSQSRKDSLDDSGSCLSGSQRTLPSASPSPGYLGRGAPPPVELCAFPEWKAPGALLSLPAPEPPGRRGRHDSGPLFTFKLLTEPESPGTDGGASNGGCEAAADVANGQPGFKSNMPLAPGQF
Method: as §1

[10] = test system: α1B/D-AR, CCR1, CCR2, CXCR4, CCR8; experiment: Proximity ligation assay, individual receptors on THP-1 cells; settings: 10 μM, 30 min at 37° C., FIG. 6; for cell surface expression of α1B/D-AR, CCR1, CCR2 and CXCR4 (PLA signals): vs vehicle
[11] = target: T2, CCR2:α1b-AR heteromers; experiment: PRESTO-Tango β-arrestin recruitment assay, HTLA cells with CCR2-Tango plus α1b-AR; format: cell-based; parameters: Tango module of the TANGO vector (C); expressed in transfected cells; host or cells: HTLA
Method: The assays were performed as described previously (Albee, 2017; Gao, 2022; Albee, 2018; Eby, 2017; Cheng, 2017). HTLA cells were seeded in a 6-well plate and transfected with 750 ng FLAG-CCR2-Tango together with 750 ng pcDNA3.1 or HA-α1b-AR using TransIT-2020 Transfection Reagent. The next day, cells (75,000 cells/well) were plated onto poly-L-Lysine pre-coated 96-well plates and allowed to attach to the plate surface for at least 4 hours prior to treatment. Cells were treated with receptor ligands at the concentrations indicated in the figure legends for 2 h and then replaced with fresh full medium and incubated overnight at 37° C., 5% CO2 in a humidified environment. The following morning, medium was replaced with a 100 μL 1:10 mixture of Bright-Glo (Promega) and PBS. Plates were then incubated at room temperature for 10 min before measuring luminescence on a Biotek Synergy II plate reader. Relative luminescence units (RLU) are expressed as fold changes of RLU vs unstimulated cells.

[12] = test system: CCR1; experiment: Chemotaxis assay, human monocytes toward CCL23 (CCR1-mediated); format: cell-based; settings: mean±SE, read-out: IC50 for inhibition of CCR1-mediated chemotaxis
Method: as §2

[13] = test system: CXCR4; experiment: Chemotaxis assay, human monocytes toward CXCL12 (CXCR4-mediated); format: cell-based; settings: mean±SE, read-out: IC50 for inhibition of CXCR4-mediated chemotaxis
Method: as §2

[14] = test system: CCR8; experiment: Chemotaxis assay, human monocytes toward CCL1 (CCR8-mediated); format: cell-based
Method: as §2

[15] = test system: CR heteromerization partners of α1B/D-ARs (CCR1, CCR2, CXCR4); experiment: Chemotaxis assay, human monocytes, CR heteromerization partners of α1B/D-ARs taken together; format: cell-based; settings: FIG. 17B
Method: as §2

T1 sequence (P41597 whole entry): as the sequence (P41597 whole entry) above

Row | Top plateau, β-arrestin recruitment BRET in the presence of the ligand [9] | effect on CCL2-induced β-arrestin recruitment to CCR2 ([11]; 1 μM PT, FIG. 5B) | β-arrestin recruitment to CCR2-Tango by the ligand ([11]; cells co-transfected with CCR2-Tango plus α1b-AR, FIG. 5A) | Structure (SMILES) | effect on CCL2-induced Gαi1 activation [1] | effect on the CCL2-induced BRET signal (CCR2-Rluc / β-arrestin-YFP) [2] | leukocyte infiltration induced by LPS, CCL2 or CXCL12 [3] | IC50 [4] [nM] | CCR8-mediated chemotaxis [5] | CXCR4-mediated chemotaxis of primary human vascular smooth muscle cells [6] | IC50 [7] [nM] | binding affinity of CCR2 for CCL2 [8] | cell surface expression of α1B/D-AR, CCR1, CCR2 and CXCR4 (PLA signals) [10] | IC50 [12] [nM] | IC50 [13] [nM] | CCL1-induced chemotaxis [14] | inhibition of chemotaxis mediated via CR heteromerization partners of α1B/D-ARs [15] | expression of CCR8 (PLA signals) [10] | efficacy to induce β-arrestin recruitment to CCR2 ([11]; agonist alone) [fold change RLU] | increase of the efficacy of CCL2 to recruit β-arrestin to CCR2 ([11]; co-stimulated with CCL2 and 1 μM PE vs CCL2 alone) [fold] | efficacy of CCL2 to recruit β-arrestin to CCR2 in the presence of the ligand ([11]; co-stimulated with CCL2 and 1 μM PE, FIG. 5B) [fold change RLU]
1 | 0.061±0.002 | did not affect | had no effect | Cc1ccc(N(CC2=NCCN2)c2cccc(O)c2)cc1 [phentolamine] | did not affect | not affected | inhibited in a dose-dependent manner | 0.03 ± 0.08 | did not affect | inhibit | 2.7 ± 3.5 | did not affect | did not affect |  |  |  |  |  |  |  | 
2 |  |  |  | CNC[C@H](O)c1cccc(O)c1 [phenylephrine] | did not affect | not affected | inhibited in a dose-dependent manner | 5 ± 6.7 | did not affect | inhibit | 7.5 ± 7.7 | did not affect | reduced | 12 ± 8 | 6 ± 3 | not affected | 60-77% | not affected | 2.4±0.14 | 3 | 130±12
